The values that follow come from ChEMBL document CHEMBL1126702, “Modeling the anticancer action of some retinoid compounds by making use of the OASIS method” (J Med Chem, 1993).

Data set [1] in a line: Partition coefficient (logP). The data set is classed as physicochemical. The settings on record: octanol/water.
Another data set deals with Cricetinae gen. sp. As to the kind of experiment: Tested for anticancer activity against hamster tracheal cells. The data set is classed as functional, Trachea.

As a reminder, the logP is the decadic logarithm of the partition coefficient of the neutral form, usually between octanol and water. As for `CC(=O)C1=C(/C=C/C(C)=C/C=C/C(C)=C/C=O)C(C)(C)CC1`, the logP in data set [1] (read-out: logP) is 6.63. In addition, the “-Log ED50” value in the data set on Cricetinae gen. sp. is given as 9.3.

As to `CCC(=O)/C=C(C)/C=C/C=C(C)/C=C/c1c(C)cc(O)c(C)c1C`, the logP in data set [1] (read-out: logP) was 7.34. Besides, the “-Log ED50” value in the data set with Cricetinae gen. sp. came to 7.

`CC(=O)/C=C(C)/C=C/C=C(C)/C=C/C1(O)C(C)(C)CCCC1(C)O` (stereo not drawn): the logP in data set [1] (read-out: logP) turned out to be 4.2. The “-Log ED50” value in the data set with Cricetinae gen. sp. is reported as 6.7.

In the case of `CC(=O)/C=C(C)/C=C/C=C(C)/C=C/C12OC1(C)CCCC2(C)C` (stereo not drawn), the logP in data set [1] (read-out: logP) came to 5.08. In addition, the “-Log ED50” value with Cricetinae gen. sp. was determined as 8.52.

As to `CC1=C(/C=C/C(C)=C/C=C/C(C)=C/C=O)C(C)(C)CCC1=O`, the logP in data set [1] (read-out: logP) was 6.63. For the same compound, in the data set with Cricetinae gen. sp., the “-Log ED50” value was determined as 9.15.

`COc1cc(C)c(/C=C/C(C)=C/C=C/C(C)=C/C=O)c(C)c1C`: the logP in data set [1] (read-out: logP) turned out to be 6.57. The “-Log ED50” value in the data set with Cricetinae gen. sp. was determined as 8.3.

Consider `CC(/C=C/C=C(C)/C=C/c1ccco1)=C\C=O`, for which the logP in data set [1] (read-out: logP) was determined as 3.69. Moreover, the “-Log ED50” value in the data set with Cricetinae gen. sp. turned out to be 6.

Regarding `CCC(=O)/C=C(C)/C=C/C=C(C)/C=C/c1c(C)cc(OC)c(C)c1C`, the logP in data set [1] (read-out: logP) is 7.22. Further, in the data set on Cricetinae gen. sp., the “-Log ED50” value was found to be 7.7.

For the compound `COC(C)C1=C(/C=C/C(C)=C/C=C/C(C)=C/C=O)C(C)(C)CC1` (stereo not drawn), the logP in data set [1] (read-out: logP) is 6.58. Moreover, the “-Log ED50” value in the data set with Cricetinae gen. sp. turned out to be 9.7.

Consider `CC(/C=C/C=C(C)/C=C/c1ccccc1)=C\C=O`, for which, in data set [1] (read-out: logP), the logP stood at 5.37. Moreover, the “-Log ED50” value with Cricetinae gen. sp. was 6.

Turning to `CC(/C=C/C=C(C)/C=C/c1cccnc1)=C\C=O`, the log partition coefficient (logP) in data set [1] (read-out: logP) worked out at 4.69. Besides, the “-Log ED50” value in the data set on Cricetinae gen. sp. came out at 6.52.

Regarding `CC(/C=C/C=C(C)/C=C/C1C(C)CCCC1(C)C)=C\C=O` (stereo not drawn), the logP in data set [1] (read-out: logP) amounted to 7.29. The “-Log ED50” value in the data set on Cricetinae gen. sp. was less than 9.

For `CCC(=O)/C=C(C)/C=C/C=C(C)/C=C/C1=C(C)CCCC1(C)C`, the log partition coefficient (logP) in data set [1] (read-out: logP) worked out at 8.12. Besides, in the data set on Cricetinae gen. sp., the “-Log ED50” value worked out at 9.3.

`CC(=O)/C=C(C)/C=C/C=C(C)/C=C/C1=C(C)CCCC1(C)C`: the log partition coefficient (logP) in data set [1] (read-out: logP) worked out at 7.63. Further, the “-Log ED50” value in the data set with Cricetinae gen. sp. came to 9.52.

On to `CC1=C(/C=C/C(C)=C/C=C/C(C)=C/C=O)C(C)(C)CCC1O` (stereo not drawn), for which the logP in data set [1] (read-out: logP) came to 6.1. The “-Log ED50” value in the data set on Cricetinae gen. sp. was 9.15.

As to `CC(/C=C/C=C(C)/C=C/c1ccsc1)=C\C=O`, in data set [1] (read-out: logP), the log partition coefficient (logP) was determined as 4.13. For the same compound, the “-Log ED50” value in the data set on Cricetinae gen. sp. is greater than 8.

For the compound `CC(/C=C/C=C(C)/C=C/C12OC1(C)CCCC2(C)C)=C\C=O` (stereo not drawn), in data set [1] (read-out: logP), the logP turned out to be 4.91. For the same compound, the “-Log ED50” value in the data set on Cricetinae gen. sp. stood at 8.7.

`CC1=CCCC(C)(C)C1/C=C/C(C)=C/C=C/C(C)=C/C=O` (stereo in doubt; 16) returned a log partition coefficient (logP) in data set [1] of 7.09. In addition, in the data set on Cricetinae gen. sp., the “-Log ED50” value was less than 8.

Take `CC1=CCCC(C)(C)C1/C=C/C(C)=C/C=C/C(C)=C/C=O` (stereo in doubt; 19): the log partition coefficient (logP) in data set [1] (read-out: logP) was determined as 7.47. Moreover, in the data set on Cricetinae gen. sp., the “-Log ED50” value stood at 10.52.
